According to the NIST ThermoML archive (doi:10.1021/je300377a):

Experiment: molar heat capacity at constant pressure
Conditions: 101.33 kPa, Liquid

CCCCCCCCn1cc[n+](C)c1.O=S(=O)([N-]S(=O)(=O)C(F)(F)F)C(F)(F)F
Conditions | molar heat capacity at constant pressure [J/K/mol]
265.02 K | 621.44
275 K | 628.1
285.01 K | 636.18
295.01 K | 643.79
305.02 K | 651.87
315.02 K | 660.43
325.02 K | 668.51
335.02 K | 675.65
345.02 K | 684.21
355.02 K | 694.67
360 K | 706.08
375.01 K | 720.34
385.03 K | 737.93

CCCCCCCC[n+]1ccccc1.O=S(=O)([N-]S(=O)(=O)C(F)(F)F)C(F)(F)F [1-octylpyridinium bis((trifluoromethyl)sulfonyl)amide]
Conditions | molar heat capacity at constant pressure [J/K/mol]
265.04 K | 582.55
275.12 K | 597.2
285.05 K | 609.01
295.03 K | 620.82
305.03 K | 636.89
315.07 K | 652.95
325.13 K | 669.02
335.03 K | 681.77
345.1 K | 694.53
355 K | 707.76
365.05 K | 721.93
375.09 K | 738.47
385.13 K | 755.95

CCCC[N+]1(C)CCCC1.O=S(=O)([N-]S(=O)(=O)C(F)(F)F)C(F)(F)F
Conditions | molar heat capacity at constant pressure [J/K/mol]
265.04 K | 472.25
275.12 K | 484.93
285.06 K | 492.11
295.03 K | 498.44
305.03 K | 507.31
315.07 K | 515.76
325.13 K | 524.63
335.04 K | 531.39
345.11 K | 539.84
355 K | 547.87
365.05 K | 554.62
375.09 K | 563.07
385.14 K | 576.17

CCCCCCCC[N+]1(C)CCCC1.O=S(=O)([N-]S(=O)(=O)C(F)(F)F)C(F)(F)F
Conditions | molar heat capacity at constant pressure [J/K/mol]
265.06 K | 605.8
275.13 K | 616.33
285.07 K | 626.86
295.04 K | 636.43
305.04 K | 647.91
315.07 K | 658.44
325.14 K | 668.97
335.04 K | 679.49
345.11 K | 690.02
355.01 K | 700.55
365.05 K | 711.08
375.01 K | 721.6
385.14 K | 732.13

CCCCCCCC[N+]1(CC)CCCCC1.O=S(=O)([N-]S(=O)(=O)C(F)(F)F)C(F)(F)F
Conditions | molar heat capacity at constant pressure [J/K/mol]
265.01 K | 703.63
275 K | 719.33
285.01 K | 730.47
295.01 K | 743.64
305.01 K | 763.4
315.01 K | 782.14
325.01 K | 799.37
335.02 K | 814.56
345.02 K | 829.25
355.01 K | 844.96
365 K | 868.26
375.01 K | 882.44
385.02 K | 903.72
